The assay concerns HBV. The assay can be described thus: In-vitro anti-HBV activity in stable HBV-producing cell line (HepG2.2.15), HBV DNA by qPCR. It is filed as cell-based. Particulars: Hepatitis B virus. As for the experimental part: HBV DNA contents in cell culture fluid were detected by the qPCR-based assay and 50% effective concentration (EC50) values of the compounds against HBV were calculated. Specific procedures are as follows:
HepG2.2.15 cells were seeded into each well of 96-well plates, 40,000 cells per well. Cells were treated with cell culture medium containing compounds with different concentrations for 24 hours after cell seeding. The final concentration of each compound was 16.4 μM in each well and each compound was diluted to desired concentration using 3-fold gradient dilution protocol, 9 diluted points in duplicate. The culture mediums containing the compounds were refreshed on day 4 post cell seeding. Culture media were collected from the HepG2.2.15 plates on day 7 post cell seeding followed by HBV DNA extraction.
HBV DNA extraction: The HBV DNA extraction was performed using QIAamp 96 DNA Blood Kit (QIAGEN 51161).
PCR for quantification: PCR mix was prepared according to PCR system. PCR mix was dispensed to 96-well optical reaction plates (special for quantification). The standard diluted proportionally was added. Then the sample was added; The plates were sealed with optical adhesive film; PCR system was performed according to programs.
Percentage of HBV inhibition of DNA replication by compound was calculated using the following equation: % Inh.=[1-HBV DNA quantity of sample/HBV DNA quantity of DMSO control]×100.
Calculating EC50 value of compounds to HBV replication: the EC50 values were calculated based on “four-parameter logistic equation” and using GraphPad Prism 5 analysis software.
(Real-time PCR tracks product formation cycle by cycle.)

The mark [1] stands for this setting: 168 h, HepG2.2.15 cells, HBV DNA in culture fluid, day 7, top concentration 16.4 μM.
The mark [2] stands for this setting: HepG2.2.15, isomers of compound of formular (II).

The record followed here is patent US9771358B2, “Dihydropyrimidine compounds and their application in pharmaceuticals” (SUNSHINE LAKE PHARMA CO., LTD., priority 2014, dated 2017).

Each structure is given as a SMILES string.

What is called EC50 is the concentration that produces a half-maximal response. Lower therefore signals greater potency.

On to `CCOC(=O)C1=C(CN2CCO[C@@H](CCC(=O)O)C2)NC(c2nccs2)=N[C@H]1c1ccc(F)cc1Br` [Example 21, 3-((S)-4-(((R)-6-(2-Bromo-4-fluorophenyl)-5-(ethoxycarbonyl)-2-(thiazol-2-yl)-3,6-dihydropyrimidin-4-yl)methyl)morpholin-2-yl)propanoic acid], for which, under setting [1], the EC50 was 0.0936 µM. In the case of `COC(=O)C1=C(CN2CCO[C@@H](CCC(=O)O)C2)NC(c2nccs2)=N[C@H]1c1ccc(F)cc1Br` [Example 22, 3-((S)-4-(((R)-6-(2-Bromo-4-fluorophenyl)-5-(methoxycarbonyl)-2-(thiazol-2-yl)-3,6-dihydropyrimidin-4-yl)methyl)morpholin-2-yl)propanoic acid], it took 0.089 µM to reach a half-maximal effect under setting [1] (EC50). In turn, `CCOC(=O)C1=C(CN2CCO[C@@H](CCC(=O)O)C2)NC(c2nccs2)=N[C@H]1c1ccc(F)cc1Cl` [Example 23, 3-((S)-4-(((R)-6-(2-Chloro-4-fluorophenyl)-5-(ethoxycarbonyl)-2-(thiazol-2-yl)-3,6-dihydropyrimidin-4-yl)methyl)morpholin-2-yl)propanoic acid] had an EC50 under setting [1] of 0.11 µM and a half-maximal effective concentration (EC50) under setting [2] of 0.11 µM.

As for `COC(=O)C1=C(CN2CCO[C@@H](CCC(=O)O)C2)NC(c2nccs2)=N[C@H]1c1ccc(F)cc1Cl` [Example 24, 3-((S)-4-(((R)-6-(2-Chloro-4-fluorophenyl)-5-(methoxycarbonyl)-2-(thiazol-2-yl)-3,6-dihydropyrimidin-4-yl)methyl)morpholin-2-yl)propanoic acid], under setting [1], a half-maximal response (EC50) required 0.107 µM. Still for that read-out and setting: the result for `CCOC(=O)C1=C(CN2CCO[C@@H](CCC(=O)O)C2)NC(c2nccs2)=N[C@H]1c1ccc(Cl)cc1Cl` [Example 25, 3-((S)-4-(((R)-6-(2,4-Dichlorophenyl)-5-(ethoxycarbonyl)-2-(thiazol-2-yl)-3,6-dihydropyrimidin-4-yl)methyl)morpholin-2-yl)propanoic acid] reads 0.086 µM; that for `COC(=O)C1=C(CN2CCO[C@@H](CCC(=O)O)C2)NC(c2nccs2)=N[C@H]1c1ccc(Cl)cc1Cl` [Example 26, 3-((S)-4-(((R)-6-(2,4-Dichlorophenyl)-5-(methoxycarbonyl)-2-(thiazol-2-yl)-3,6-dihydropyrimidin-4-yl)methyl)morpholin-2-yl)propanoic acid], 0.082 µM. Still for that read-out and setting: the result for `CCOC(=O)C1=C(CN2CCO[C@H](CCC(=O)O)C2)NC(c2nccs2)=N[C@@H]1c1ccc(F)cc1Br` [Example 35, 3-((R)-4-(((S)-6-(2-Bromo-4-fluorophenyl)-5-(ethoxycarbonyl)-2-(thiazol-2-yl)-3,6-dihydropyrimidin-4-yl)methyl)morpholin-2-yl)propanoic acid] reads greater than 12.2 µM. As to `CCOC(=O)C1=C(CN2CCO[C@@H](CCC(=O)O)C2)NC(c2nccs2)=N[C@@H]1c1ccc(F)cc1Br` [Example 36, 3-((S)-4-(((S)-6-(2-Bromo-4-fluorophenyl)-5-(ethoxycarbonyl)-2-(thiazol-2-yl)-3,6-dihydropyrimidin-4-yl)methyl)morpholin-2-yl)propanoic acid], under setting [1], the EC50 was greater than 14.5 µM. Turning to `CCOC(=O)C1=C(CN2CCO[C@H](CCC(=O)O)C2)NC(c2nccs2)=N[C@@H]1c1ccc(F)cc1Cl` [Example 37, 3-((R)-4-(((S)-6-(2-Chloro-4-fluorophenyl)-5-(ethoxycarbonyl)-2-(thiazol-2-yl)-3,6-dihydropyrimidin-4-yl)methyl)morpholin-2-yl)propanoic acid], the concentration for a half-maximal effect (EC50) under setting [1] was greater than 16.4 µM.

Regarding `CCOC(=O)C1=C(CN2CCO[C@@H](CCC(=O)O)C2)NC(c2nccs2)=N[C@@H]1c1ccc(F)cc1Cl` [Example 38, 3-((S)-4-(((S)-6-(2-Chloro-4-fluorophenyl)-5-(ethoxycarbonyl)-2-(thiazol-2-yl)-3,6-dihydropyrimidin-4-yl)methyl)morpholin-2-yl)propanoic acid], under setting [1], the EC50 was greater than 16.4 µM. Take `COC(=O)C1=C(CN2CCO[C@H](CCC(=O)O)C2)NC(c2nccs2)=N[C@@H]1c1ccc(F)cc1Cl` [Example 39, 3-((R)-4-(((S)-6-(2-Chloro-4-fluorophenyl)-5-(methoxycarbonyl)-2-(thiazol-2-yl)-3,6-dihydropyrimidin-4-yl)methyl)morpholin-2-yl)propanoic acid]: the half-maximal effective concentration (EC50) under setting [1] was greater than 15.2 µM.

Under setting [1], `COC(=O)C1=C(CN2CCO[C@@H](CCC(=O)O)C2)NC(c2nccs2)=N[C@@H]1c1ccc(F)cc1Cl` [Example 40, 3-((S)-4-(((S)-6-(2-Chloro-4-fluorophenyl)-5-(methoxycarbonyl)-2-(thiazol-2-yl)-3,6-dihydropyrimidin-4-yl)methyl)morpholin-2-yl)propanoic acid] showed a concentration giving a half-maximal response (EC50) greater than 16.4 µM.

`COC(=O)C1=C(CN2CCO[C@H](CCC(=O)O)C2)NC(c2nccs2)=N[C@@H]1c1ccc(F)cc1Br` [Example 41, 3-((R)-4-(((S)-6-(2-Bromo-4-fluorophenyl)-5-(methoxycarbonyl)-2-(thiazol-2-yl)-3,6-dihydropyrimidin-4-yl)methyl)morpholin-2-yl)propanoic acid]: the EC50 under setting [1] was greater than 12.8 µM. Turning to `COC(=O)C1=C(CN2CCO[C@@H](CCC(=O)O)C2)NC(c2nccs2)=N[C@@H]1c1ccc(F)cc1Br` [Example 42, 3-((S)-4-(((S)-6-(2-Bromo-4-fluorophenyl)-5-(methoxycarbonyl)-2-(thiazol-2-yl)-3,6-dihydropyrimidin-4-yl)methyl)morpholin-2-yl)propanoic acid], the EC50 under setting [1] was greater than 15.3 µM. As to `CCOC(=O)C1=C(CN2CCO[C@H](CCC(=O)O)C2)NC(c2nccs2)=N[C@@H]1c1ccc(Cl)cc1Cl` [Example 43, 3-((R)-4-(((S)-6-(2,4-Dichlorophenyl)-5-(ethoxycarbonyl)-2-(thiazol-2-yl)-3,6-dihydropyrimidin-4-yl)methyl)morpholin-2-yl)propanoic acid], the EC50 under setting [1] is greater than 11.7 µM. Same read-out and setting: the result for `CCOC(=O)C1=C(CN2CCO[C@@H](CCC(=O)O)C2)NC(c2nccs2)=N[C@@H]1c1ccc(Cl)cc1Cl` [Example 44, 3-((S)-4-(((S)-6-(2,4-Dichlorophenyl)-5-(ethoxycarbonyl)-2-(thiazol-2-yl)-3,6-dihydropyrimidin-4-yl)methyl)morpholin-2-yl)propanoic acid] reads greater than 14.9 µM; that for `COC(=O)C1=C(CN2CCO[C@H](CCC(=O)O)C2)NC(c2nccs2)=N[C@@H]1c1ccc(Cl)cc1Cl` [Example 45, 3-((R)-4-(((S)-6-(2,4-dichlorophenyl)-5-(methoxycarbonyl)-2-(thiazol-2-yl)-3,6-dihydropyrimidin-4-yl)methyl)morpholin-2-yl)propanoic acid], greater than 11.3 µM; that for `COC(=O)C1=C(CN2CCO[C@@H](CCC(=O)O)C2)NC(c2nccs2)=N[C@@H]1c1ccc(Cl)cc1Cl` [Example 46, 3-((S)-4-(((S)-6-(2,4-Dichlorophenyl)-5-(methoxycarbonyl)-2-(thiazol-2-yl)-3,6-dihydropyrimidin-4-yl)methyl)morpholin-2-yl)propanoic acid], greater than 14.2 µM.

As for `CCOC(=O)C1=C(CN2CCOC[C@H]2CCC(=O)O)NC(c2nccs2)=N[C@@H]1c1ccc(F)cc1Br` [Example 47, 3-((R)-4-(((S)-6-(2-Bromo-4-fluorophenyl)-5-(ethoxycarbonyl)-2-(thiazol-2-yl)-3,6-dihydropyrimidin-4-yl)methyl)morpholin-3-yl)propanoic acid], the concentration for a half-maximal effect (EC50) under setting [1] was greater than 16.4 µM.

With `CCOC(=O)C1=C(CN2CCOC[C@@H]2CCC(=O)O)NC(c2nccs2)=N[C@@H]1c1ccc(F)cc1Br` [Example 48, 3-((S)-4-(((S)-6-(2-Bromo-4-fluorophenyl)-5-(ethoxycarbonyl)-2-(thiazol-2-yl)-3,6-dihydropyrimidin-4-yl)methyl)morpholin-3-yl)propanoic acid], under setting [1], the EC50 was greater than 10.3 µM. For the compound `COC(=O)C1=C(CN2CCOC[C@H]2CCC(=O)O)NC(c2nccs2)=N[C@@H]1c1ccc(F)cc1Br` [Example 49, 3-((R)-4-(((S)-6-(2-Bromo-4-fluorophenyl)-5-(methoxycarbonyl)-2-(thiazol-2-yl)-3,6-dihydropyrimidin-4-yl)methyl)morpholin-3-yl)propanoic acid], the EC50 under setting [1] is greater than 16.4 µM.

Turning to `COC(=O)C1=C(CN2CCOC[C@@H]2CCC(=O)O)NC(c2nccs2)=N[C@@H]1c1ccc(F)cc1Br` [Example 50, 3-((S)-4-(((S)-6-(2-Bromo-4-fluorophenyl)-5-(methoxycarbonyl)-2-(thiazol-2-yl)-3,6-dihydropyrimidin-4-yl)methyl)morpholin-3-yl)propanoic acid], the EC50 under setting [1] was greater than 10.9 µM. With `CCOC(=O)C1=C(CN2CCO[C@H](CCC(=O)O)C2)NC(c2nccs2)=N[C@@H]1c1ccc(F)cc1Cl` [Example M3], under setting [2], the EC50 was greater than 16.4 µM.

For the compound `CCOC(=O)C1=C(CN2CCO[C@@H](CCC(=O)O)C2)NC(c2nccs2)=N[C@@H]1c1ccc(F)cc1Cl` [Example M4], the EC50 under setting [2] is greater than 16.4 µM.
